Measurements taken from US20150005390A1, “METHOD FOR TREATING INFLAMMATORY DISORDER” (National Defense Medical Center, priority 2013, published 2015).

Legend:
[1] = test system: NO production in RAW 264.7 macrophages; experiment: NO inhibitory assay (Griess reaction) in LPS-activated macrophages; type: cell-based, murine; settings: RAW 264.7 macrophages pretreated with creosol 30 minutes, then LPS 1 μg/ml 24 hours; FIG. 1A
Experimental: RAW 264.7 cells were seeded in 24-well plates at a density of 5×10^5 cells/ml, and then incubated with or without LPS (1 μg/ml) in the absence or presence of tested samples for 24 hours. The effects of creosol on NO production were measured indirectly by the analysis of nitrite levels, using the Griess reaction. The effects of creosol on the expression of inflammatory mediators were analyzed. In the present invention, RAW 264.7 macrophages (5×10^5/ml) were pretreated with creosol for 30 minutes, followed by stimulation with LPS (1 μg/ml) for 24 hours. NO concentration in culture medium was assayed by the Griess reaction.

[2] = test system: IL-6 expression in RAW 264.7 macrophages; experiment: IL-6 ELISA in LPS-activated macrophages; type: cell-based, murine; settings: RAW 264.7 macrophages pretreated with creosol 30 minutes, then LPS 1 μg/ml 24 hours; FIG. 1B
Experimental: (§1) Cells were seeded in 6-well plates at a density of 5×10^5 cells/ml, and then incubated with or without LPS (1 μug/ml) in the absence or presence of tested samples for 24 hours. The effects of the tested samples on TNF-α, IL-6 and IL-1β production were measured by ELISA according to the manufacturer's protocol. Briefly, 50 μl of biotinylated antibody reagent and 50 μl of supernatant were added to an anti-mouse TNF-α, IL-6 and IL-1β precoated stripwell plate, and incubated at room temperature for 2 hours. After washing the plate three times with the washing buffer, 100 μl of diluted streptavidin-HRP (horseradish peroxidase) concentrate was added to each well and the plate was incubated at room temperature for 30 minutes. The washing process was repeated; then, 100 μl of a premixed tetramethylbenzidine substrate solution was added to each well and developed at room temperature, in the dark, for 30 minutes. Following the addition of 100 μl of stop solution to each well to stop the reaction, the absorbance of the plate was measured by a microplate reader at a 450 nm wavelength. As shown in FIG. 1B and FIG. 1C, RAW 264.7 macrophages (5×10^5/ml) were pretreated with creosol for 30 minutes, followed by stimulating with LPS (1 μg/ml) for 24 hours. IL-6 and TNF-α concentration in culture medium was assayed by ELISA.

[3] = test system: TNF-α expression in RAW 264.7 macrophages; experiment: TNF-α ELISA in LPS-activated macrophages; type: cell-based, murine; settings: RAW 264.7 macrophages pretreated with creosol 30 minutes, then LPS 1 μg/ml 24 hours; FIG. 1C
Experimental: as §1

[4] = test system: IL-1β secretion in J774A.1 cells; experiment: IL-1β secretion ELISA in ATP stimulated LPS-primed macrophages (NLRP3 inflammasome activation); type: cell-based, mouse
Experimental: Cells were seeded in 6-well plates at a density of 5×10^5 cells/ml, and then incubated with or without LPS (1 μug/ml) in the absence or presence of tested samples for 24 hours. The effects of the tested samples on TNF-α, IL-6 and IL-1β production were measured by ELISA according to the manufacturer's protocol. Briefly, 50 μl of biotinylated antibody reagent and 50 μl of supernatant were added to an anti-mouse TNF-α, IL-6 and IL-1β precoated stripwell plate, and incubated at room temperature for 2 hours. […] Following the addition of 100 μl of stop solution to each well to stop the reaction, the absorbance of the plate was measured by a microplate reader at a 450 nm wavelength.
(§2) J774A.1 cells (1×10^6/ml) were primed with LPS for 5.5 hours, followed by treatment with creosol for 30 minutes, and then stimulated with ATP (5 mM) for an additional 30 minutes. […] Data is expressed as the mean±SE from three separate experiments (wherein *p<0.05). In FIG. 2B, the expression of caspase-1 (p45) and cleaved caspase-1 (p10) were analyzed by Western blot. […] Data is expressed as the mean±SE from three separate experiments (wherein *p<0.05). The expressions of caspase-1 (p45) and cleaved caspase-1 (p10) were analyzed by Western blot, and the result of one of the three separate experiments is shown in FIG. 2D. […] The expressions of NLRP3 inflammasomes and IL-1β precursor were analyzed by Western blot. […]

[5] = test system: caspase-1 activation in J774A.1 cells; experiment: Caspase-1 activation, Western blot of p10 subunit in ATP stimulated LPS-primed macrophages; type: cell-based, mouse; settings: then ATP 30 minutes
Experimental: (§3) Whole cell lysates were separated by SDS-PAGE and electrotransferred to a PVDF (polyvinylidene fluoride) membrane. The membranes were incubated in a blocking solution—5% nonfat milk in phosphate buffered saline with 0.1% Tween 20—at room temperature for 1 hour. Each membrane was incubated with a specific primary antibody, at room temperature, for 2 hours. After washing the membrane three times in PBS with 0.1% Tween 20, it was incubated with an HRP-conjugated secondary antibody directed against the primary antibody. The membrane was developed by an enhanced chemiluminescence Western blot detection system.
as §2

[6] = test system: NLRP3 expression in J774A.1 cells; experiment: NLRP3 expression, Western blot in LPS-activated macrophages; type: cell-based, mouse; settings: J774A.1 cells incubated with creosol 30 minutes, then LPS 6 hours; FIG. 2E
Experimental: as §3, §2

[7] = test system: IL-1β precursor expression in J774A.1 cells; experiment: IL-1β precursor expression, Western blot in LPS-activated macrophages; type: cell-based, mouse; settings: J774A.1 cells incubated with creosol 30 minutes, then LPS 6 hours; FIG. 2E
Experimental: as §3, §2

[8] = test system: cultured rat hippocampal neurons; settings: cultured rat hippocampal neurons exposed to N-methyl-D-aspartate or H2O2; cited from earlier work
[9] = test system: ovariectomy-induced bone loss; settings: through inhibiting osteoclastogenesis; cited from earlier work

Q: For COc1cc(C)ccc1O [creosol, 2-methoxy-4-methylphenol], which “expression of NO” value [1] is on record?
A: inhibited in creosol-pretreated cells in a dose-dependent manner

Q: What about the IL-6 expression [2] of the same compound?
A: able to inhibit IL-6 expression in a dose-dependent manner

Q: What about the TNF-α expression [3] of the same compound?
A: not able to inhibit TNF-α expression

Q: What about the IL-1β secretion ([4]; J774A.1 cells incubated with creosol 30 minutes before LPS-priming, washed out, then ATP 30 minutes, FIG. 2C) of the same compound?
A: inhibited IL-1β secretion in a dose-dependent fashion

Q: And the IL-1β secretion ([4]; LPS-primed J774A.1 cells incubated with creosol 30 minutes, then ATP 5 mM 30 minutes, FIG. 2A)?
A: inhibited IL-1β secretion slightly

Q: What about the caspase-1 activation ([5]; J774A.1 cells incubated with creosol 30 minutes before LPS-priming, washed out, FIG. 2D) of the same compound?
A: inhibited by creosol in a dose-dependent fashion

Q: And the caspase-1 activation ([5]; LPS-primed J774A.1 cells incubated with creosol 30 minutes, FIG. 2B)?
A: inhibited caspase-1 activation slightly

Q: What about the NLRP3 expression [6] of the same compound?
A: inhibited NLRP3 expression slightly

Q: What about the IL-1β precursor expression [7] of the same compound?
A: significantly inhibited the IL-1[…] precursor expression

Q: And the “prevention of cell death of neurons” value [8]?
A: able to prevent the cell death

Q: And the “prevention of ovariectomy-induced bone loss” value [9]?
A: able to prevent ovariectomy-induced bone loss
